Among the data in US12410136B2, “Pyridinyl morpholine compound, preparation method therefor, and application thereof” (SHANGHAI ZHONGZE THERAPEUTICS, CO. LTD., priority 2020, dated 2025) are Ki values, retold here.

The target of assay [1] is T1, human recombinant D3 receptor (Homo sapiens, UniProt P35462).
T1 construct: expressed in transfected cells; host or cells: CHO
Description: Dopamine D3 receptor binding test. The following applies: [3H]methyl-spiperone 0.3 nM, human recombinant D3 receptor expressed in CHO cells; read-out: Affinity of the compound for each receptor (Ki value, nM) D3. The method, then:
Dopamine D3 Receptor Binding Test
[^3H]methyl-spiperone (0.3 nM) was used as the ligand, and (+)-butaclamol (10 μM) was used to determine the non-specific binding, and the binding assay was performed on human recombinant D3 receptor (expressed in CHO cells).

The target of a further assay is T2, 5-HT2A receptor (Homo sapiens, UniProt P28223).
T2 construct: expressed in transfected cells; host or cells: HEK293
In words: 5-HT2A receptor binding test. The following applies: [3H]-Ketanserin, 5-HT2A receptor expressed in HEK293 cells; read-out: Affinity of the compound for each receptor (Ki value, nM) 5-HT2A. The source says:
5-HT2A Receptor Binding Test
Beckman LS-6500 multifunctional liquid scintillation counter.
Tris-HCl reaction buffer (pH 7.7) was used to resuspend in the experiment.

The next assay addresses T3, H1 receptor (Homo sapiens, UniProt P35367).
T3 construct: expressed in transfected cells; host or cells: HEK-293
In words: H1 receptor binding test. The following applies: 1 nM [3H]pyrilamine, HEK-293 cell membrane homogenate; read-out: Affinity of the compound for H1 receptor (Ki value, nM) H1. As for the experimental part:
Non-specific binding was determined in the presence of 1 μM pyrilamine.

The target in another assay is D2 receptor (Homo sapiens, UniProt P14416). In words: Dopamine D2 receptor binding test.
Chain of D2 receptor (P14416 whole entry): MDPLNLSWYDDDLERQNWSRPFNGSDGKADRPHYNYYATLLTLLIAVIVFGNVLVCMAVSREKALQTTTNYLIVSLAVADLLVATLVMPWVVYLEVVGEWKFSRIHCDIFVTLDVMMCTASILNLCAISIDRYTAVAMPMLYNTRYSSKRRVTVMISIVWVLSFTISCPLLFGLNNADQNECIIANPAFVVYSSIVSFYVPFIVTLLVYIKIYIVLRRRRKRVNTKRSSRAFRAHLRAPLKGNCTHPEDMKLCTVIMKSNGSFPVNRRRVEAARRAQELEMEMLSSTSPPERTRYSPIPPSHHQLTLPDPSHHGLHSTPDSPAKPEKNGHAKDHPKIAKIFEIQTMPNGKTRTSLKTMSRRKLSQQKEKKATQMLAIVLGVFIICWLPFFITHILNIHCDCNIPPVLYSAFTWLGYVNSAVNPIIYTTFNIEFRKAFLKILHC

T2 sequence (P28223 whole entry): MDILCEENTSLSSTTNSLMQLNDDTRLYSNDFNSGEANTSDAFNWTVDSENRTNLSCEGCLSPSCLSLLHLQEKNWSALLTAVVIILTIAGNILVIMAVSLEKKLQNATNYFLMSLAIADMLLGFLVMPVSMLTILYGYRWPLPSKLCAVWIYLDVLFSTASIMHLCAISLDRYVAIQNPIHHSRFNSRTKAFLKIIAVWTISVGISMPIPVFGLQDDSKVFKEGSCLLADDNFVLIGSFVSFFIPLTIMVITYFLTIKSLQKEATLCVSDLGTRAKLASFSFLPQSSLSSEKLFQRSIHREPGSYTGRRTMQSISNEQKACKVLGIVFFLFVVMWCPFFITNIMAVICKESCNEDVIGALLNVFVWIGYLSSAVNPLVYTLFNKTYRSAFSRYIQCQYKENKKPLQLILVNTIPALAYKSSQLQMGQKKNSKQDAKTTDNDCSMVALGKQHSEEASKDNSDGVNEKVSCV
T3 sequence (P35367 whole entry): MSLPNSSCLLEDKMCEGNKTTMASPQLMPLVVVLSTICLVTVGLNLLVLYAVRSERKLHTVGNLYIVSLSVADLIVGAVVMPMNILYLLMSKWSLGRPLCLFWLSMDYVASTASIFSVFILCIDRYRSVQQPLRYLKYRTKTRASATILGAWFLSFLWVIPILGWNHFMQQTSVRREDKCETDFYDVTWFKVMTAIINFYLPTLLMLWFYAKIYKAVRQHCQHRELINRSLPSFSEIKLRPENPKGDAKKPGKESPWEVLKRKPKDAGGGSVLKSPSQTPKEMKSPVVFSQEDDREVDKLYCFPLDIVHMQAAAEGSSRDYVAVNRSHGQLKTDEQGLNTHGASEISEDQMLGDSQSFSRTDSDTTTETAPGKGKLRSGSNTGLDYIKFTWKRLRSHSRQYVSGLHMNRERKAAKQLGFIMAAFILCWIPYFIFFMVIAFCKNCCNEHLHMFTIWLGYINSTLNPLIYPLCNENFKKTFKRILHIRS
T1 sequence (P35462 whole entry): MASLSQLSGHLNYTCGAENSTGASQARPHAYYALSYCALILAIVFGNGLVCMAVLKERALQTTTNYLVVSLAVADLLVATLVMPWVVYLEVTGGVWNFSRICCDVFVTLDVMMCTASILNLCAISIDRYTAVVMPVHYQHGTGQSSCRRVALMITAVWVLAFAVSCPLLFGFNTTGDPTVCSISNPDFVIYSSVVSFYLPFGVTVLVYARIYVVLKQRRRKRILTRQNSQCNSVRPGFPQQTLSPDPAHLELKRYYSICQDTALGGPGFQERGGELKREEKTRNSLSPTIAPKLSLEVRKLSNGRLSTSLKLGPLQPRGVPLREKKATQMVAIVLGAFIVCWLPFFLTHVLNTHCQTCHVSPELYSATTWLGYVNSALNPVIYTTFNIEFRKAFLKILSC
Description for D2 receptor: Dopamine D2 Receptor Binding Test
In this experiment, HEK293 cells were transfected with plasmid vector containing D2 receptor protein gene, and calcium phosphate transfection method was used and after transfection, the cells were cultured in a culture solution containing G418, and the cell monoclonal and radioligand binding experiments were selected, and finally a stable cell line which could stably express D2 receptor protein was obtained.
HeK-293 cells were infected with recombinant viruses containing the above various genes respectively, and after 48-72 hours, the receptor proteins were expressed in large quantities on the membrane, and the cells were centrifuged at 1000 rpm for 5 min and then the culture solution was discarded, and the cells were collected, and stored in a −20° C. refrigerator for later use. Tris-HCl reaction buffer (pH=7.5) was used to resuspend in the experiment.
On the Millipore cell sample collector, the mixture was quickly filtrated under reduced pressure through GF/C glass fiber filter paper, and eluted with 3 mL of eluent (50 mMTris-HCl, pH 7.5) for 3 times, then dried under microwave for 5 to 6 min. The filter paper was moved into a 0.5 mL centrifuge tube, and 500 μL of lipid-soluble scintillation solution was added. The mixture was kept in the dark for more than 30 min, and the radioactivity intensity was determined by counting. […] Two replicate tubes were made for each experiment of compound, and two separate experiments were performed.
Two tubes were tested for each concentration and two independent tests were performed for each compound.

Take `COc1ccc(-c2cc(N3CCOCC3)nc(N3CCN(CC[C@H]4CC[C@H](NC(=O)N5CCCC5)CC4)CC3)c2)cc1` [III-1, N-(trans-4-(2-(4-(4-(4-methoxyphenyl)-6-morpholinopyridin-2-yl)piperazin-1-yl)ethyl)cyclohexyl)tetrahydropyrrole-1-carboxamide]: the inhibitory constant (Ki) in assay [1] is 0.2 nM; on 5-HT2A receptor it was 10.8 nM; on H1 receptor it was over 1000 nM; on D2 receptor it was 3.2 nM.
Consider `O=C(N[C@H]1CC[C@H](CCN2CCN(c3cc(-c4cccs4)cc(N4CCOCC4)n3)CC2)CC1)c1cccnc1` [VI-3, N-(trans-4-(2-(4-(6-morpholino-4-(thiophen-2-yl)pyridin-2-yl)piperazin-1-yl)ethyl)cyclohexyl)nicotinamide], for which the inhibitory constant (Ki) worked out at 0.8 nM in assay [1], 1.7 nM at 5-HT2A receptor, 740 nM on H1 receptor and 1.9 nM at D2 receptor.
For the compound `O=C(N[C@H]1CC[C@H](CCN2CCN(c3cc(-c4ccccc4)cc(N4CCOCC4)n3)CC2)CC1)C1CCCCC1` [Compound I-5], the inhibition constant Ki is 0.9 nM in assay [1], 1.1 nM at 5-HT2A receptor, over 1000 nM at H1 receptor and 8.6 nM on D2 receptor.
The matching figures for `CN(C)C(=O)N[C@H]1CC[C@H](CCN2CCN(c3cc(-c4cccs4)cc(N4CCOCC4)n3)CC2)CC1` [VI-4, 1,1-dimethyl-3-(trans-4-(2-(4-(6-morpholino-4-(thiophen-2-yl)pyridin-2-yl)piperazin-1-yl)ethyl)cyclohexyl)urea]: 0.1 nM, 0.9 nM, 590 nM and 2 nM.
With `CN(C)C(=O)N[C@H]1CC[C@H](CCN2CCN(c3cc(-c4ccco4)cc(N4CCOCC4)n3)CC2)CC1` [Compound V-3, 3-(trans-4-(2-(4-(4-(furan-2-yl)-6-morpholinopyridin-2-yl)piperazin-1-yl)ethyl)cyclohexyl)-1,1-dimethylurea], the Ki in assay [1] turned out to be 0.07 nM; at 5-HT2A receptor, 5 nM; on H1 receptor it was 800 nM; on D2 receptor, 7.1 nM.
Take `CCC(=O)N[C@H]1CC[C@H](CCN2CCN(c3cc(-c4ccc[nH]4)cc(N4CCOCC4)n3)CC2)CC1` [VII-1, N-(trans-4-(2-(4-(6-morpholino-4-(1H-pyrrol-2-yl)pyridin-2-yl)piperazin-1-yl)ethyl)cyclohexyl)propionamide]: the Ki in assay [1] came out at 0.28 nM; on 5-HT2A receptor it was 3.2 nM; on H1 receptor it was 460 nM; at D2 receptor it was 4.5 nM.
For `O=C(N[C@H]1CC[C@H](CCN2CCN(c3cc(-c4cccs4)cc(N4CCOCC4)n3)CC2)CC1)C1CC1` [VI-2, N-(trans-4-(2-(4-(6-morpholino-4-(thiophen-2-yl)pyridin-2-yl)piperazin-1-yl)ethyl)cyclohexyl)cyclopropanecarboxamide], the Ki in assay [1] was 0.08 nM; at 5-HT2A receptor, 2.1 nM; at H1 receptor, over 1000 nM; at D2 receptor it was 1.3 nM.
Turning to `CN(C)C(=O)N[C@H]1CC[C@H](CCN2CCN(c3cc(-c4ccc(F)cc4)cc(N4CCOCC4)n3)CC2)CC1` [II-5, 3-(trans-4-(2-(4-(4-(4-fluorophenyl)-6-morpholinopyridin-2-yl)piperazin-1-yl)ethyl)cyclohexyl)-1,1-dimethylurea], the inhibitory constant (Ki) at H1 receptor came out at 300 nM.
In the case of `COc1ccc(-c2cc(N3CCOCC3)nc(N3CCN(CC[C@H]4CC[C@H](NC(=O)N5CCN(C)CC5)CC4)CC3)c2)cc1` [III-4, N-(trans-4-(2-(4-(4-(4-methoxyphenyl)-6-morpholinopyridin-2-yl)piperazin-1-yl)ethyl)cyclohexyl)-4-methylpiperazine-1-carboxamide], the inhibition constant Ki was 6.6 nM on 5-HT2A receptor, 980 nM at H1 receptor and 11.8 nM on D2 receptor.
As for `CC(=O)N[C@H]1CC[C@H](CCN2CCN(c3cc(-c4ccccc4)cc(N4CCOCC4)n3)CC2)CC1` [Compound I-1, N-(trans-4-(2-(4-(6-morpholino-4-phenylpyridin-2-yl)piperazin-1-yl)ethyl)cyclohexyl)acetamide], the inhibition constant (Ki) in assay [1] is 0.2 nM; on 5-HT2A receptor, 1.7 nM; on H1 receptor, 760 nM; at D2 receptor, 3.1 nM.
Turning to `CN(C)C(=O)N[C@H]1CC[C@H](CCN2CCN(c3cc(-c4cccnc4)cc(N4CCOCC4)n3)CC2)CC1` [IV-3], the inhibition constant Ki turned out to be 0.1 nM in assay [1], 3.6 nM on 5-HT2A receptor, 790 nM on H1 receptor and 2 nM at D2 receptor.
Consider `CNC(=O)N[C@H]1CC[C@H](CCN2CCN(c3cc(-c4ccc(F)cc4)cc(N4CCOCC4)n3)CC2)CC1` [II-4, 1-(trans-4-(2-(4-(4-(4-fluorophenyl)-6-morpholinopyridin-2-yl)piperazin-1-yl)ethyl)cyclohexyl)-3-methylurea], for which the Ki in assay [1] was 0.3 nM; at 5-HT2A receptor, 0.9 nM; at H1 receptor, 540 nM; at D2 receptor, 2.8 nM.
In the case of `O=C(N[C@H]1CC[C@H](CCN2CCN(c3cc(-c4ccc[nH]4)cc(N4CCOCC4)n3)CC2)CC1)C1CCCCC1` [VII-3, N-(trans-4-(2-(4-(6-morpholino-4-(1H-pyrrol-2-yl)pyridin-2-yl)piperazin-1-yl)ethyl)cyclohexyl)cyclohexanecarboxamide], the inhibition constant Ki on 5-HT2A receptor came to 3.8 nM; at H1 receptor, 870 nM; at D2 receptor it was 5.1 nM.
For the compound `O=C(N[C@H]1CC[C@H](CCN2CCN(c3cc(-c4ccc[nH]4)cc(N4CCOCC4)n3)CC2)CC1)N1CCCCC1` [VII-5, N-(trans-4-(2-(4-(6-morpholino-4-(1H-pyrrol-2-yl)pyridin-2-yl)piperazin-1-yl)ethyl)cyclohexyl)piperidine-1-carboxamide], the Ki in assay [1] is 0.3 nM; on 5-HT2A receptor, 7.9 nM; on H1 receptor, over 1000 nM; on D2 receptor, 4 nM.
Regarding `O=C(N[C@H]1CC[C@H](CCN2CCN(c3cc(-c4ccc(F)cc4)cc(N4CCOCC4)n3)CC2)CC1)c1ccccc1` [II-1, N-(trans-4-(2-(4-(4-(4-fluorophenyl)-6-morpholinopyridin-2-yl)piperazin-1-yl)ethyl)cyclohexyl)benzamide], the inhibition constant Ki in assay [1] is 0.2 nM; on 5-HT2A receptor, 2.3 nM; at H1 receptor, 670 nM; at D2 receptor, 1.7 nM.
On to `O=C(N[C@H]1CC[C@H](CCN2CCN(c3cc(-c4ccc(F)cc4)cc(N4CCOCC4)n3)CC2)CC1)c1ccco1` [II-3, N-(trans-4-(2-(4-(4-(4-fluorophenyl)-6-morpholinopyridin-2-yl)piperazin-1-yl)ethyl)cyclohexyl)furan-2-carboxamide], for which the inhibition constant Ki in assay [1] turned out to be 0.09 nM; on 5-HT2A receptor it was 1.2 nM; at H1 receptor, 980 nM; on D2 receptor it was 1.4 nM.
As for `CC(C)N(C(=O)N[C@H]1CC[C@H](CCN2CCN(c3cc(-c4cccnc4)cc(N4CCOCC4)n3)CC2)CC1)C(C)C` [IV-4], the inhibitory constant (Ki) in assay [1] was 0.08 nM; at 5-HT2A receptor it was 8.7 nM; on H1 receptor, 670 nM; at D2 receptor it was 1.7 nM.
For `COCC(=O)N[C@H]1CC[C@H](CCN2CCN(c3cc(-c4ccco4)cc(N4CCOCC4)n3)CC2)CC1` [Compound V-2, N-(trans-4-(2-(4-(4-(furan-2-yl)-6-morpholinopyridin-2-yl)piperazin-1-yl)ethyl)cyclohexyl)-2-methoxyacetamide], the inhibition constant Ki on 5-HT2A receptor was determined as 8.8 nM; on H1 receptor, 740 nM; at D2 receptor, 15.2 nM.
